Biological target: T1, His-hMAGL (recombinant polyhistidine tagged human MAGL protein) (Homo sapiens, UniProt Q99685)
T1 construct: made in house; host or cells: E. coli BL21(DE3)
T1 sequence (Q99685 1-303): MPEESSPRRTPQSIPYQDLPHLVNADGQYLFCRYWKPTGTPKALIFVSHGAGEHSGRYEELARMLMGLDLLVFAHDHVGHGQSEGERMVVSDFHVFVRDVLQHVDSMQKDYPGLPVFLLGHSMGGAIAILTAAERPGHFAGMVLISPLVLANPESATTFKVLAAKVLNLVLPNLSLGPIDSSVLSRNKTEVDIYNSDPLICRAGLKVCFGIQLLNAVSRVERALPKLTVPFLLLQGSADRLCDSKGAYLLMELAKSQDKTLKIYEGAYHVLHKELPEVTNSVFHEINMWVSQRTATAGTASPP
Assay: Measurement of MAGL inhibitory activity (arachidonic acid production from 2-arachidonylglycerol, RapidFire-mass spectrometry)
Assay type: biochemical
Details: MAGL inhibitory rate, test compound 10 μM, 60 min preincubation, 2-arachidonylglycerol substrate
Method in brief: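 Arachidonic acid formed was quantified by online solid-phase extraction and triple-quadrupole MS in negative SRM mode against a d8 internal standard. Reaction: recombinant His-hMAGL (7.5 ng/mL, pH 7.5 Tris buffer with Triton X-100 and BSA) plus 2-AG (5 μL of 150 μM stock) for 10 min at room temperature, quenched with 2% formic acid. Percent inhibition corrected for enzyme-free background.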

Row | SMILES | inhibition at 10 µM [%]
1 | O=C1CCC2(CN(C(=O)c3ccc(-c4cc(OC(F)(F)F)ccc4F)cc3)C2)N1 [Example 61, 2-((2′-fluoro-5′-(trifluoromethoxy)biphenyl-4-yl)carbonyl)-2,5-diazaspiro[3.4]octan-6-one] | 97
2 | O=C1CCC2(CN(C(=O)c3ccc(-c4ccccc4)cc3)C2)N1 [Example 12, 2-(biphenyl-4-ylcarbonyl)-2,5-diazaspiro[3.4]octan-6-one] | 92
3 | Cc1cc(F)ccc1-c1ccc(OCC2CN(C(=O)N3CC4(CCC(=O)N4)C3)C2)c(F)c1 [Example 23, 2-((3-(((3,4′-difluoro-2′-methylbiphenyl-4-yl)oxy)methyl)azetidin-1-yl)carbonyl)-2,5-diazaspiro[3.4]octan-6-one] | 102
4 | CC(Oc1ccc(F)cc1Cl)C1CN(C(=O)N2CC3(CCC(=O)N3)C2)C1 (centres unmarked) [Example 4, 2-((3-(1-(2-chloro-4-fluorophenoxy)ethyl)azetidin-1-yl)carbonyl)-2,5-diazaspiro[3.4]octan-6-one] | 98
5 | O=C1CCC2(CN(C(=O)N3CCC(Cc4cccc(Cl)c4)CC3)C2)N1 [Example 100, 2-((4-(3-chlorobenzy)lpiperidin-1-yl)carbonyl)-2,5-diazaspiro[3.4]octan-6-one] | 102
6 | O=C1CCC2(CN(C(=O)N3CCN(C(c4ccc(F)cc4)c4ccc(F)cc4)CC3)C2)N1 [Example 113, 2-((4-(bis(4-fluorophenyl)methyl)piperazin-1-yl)carbonyl)-2,5-diazaspiro[3.4]octan-6-one] | 101
7 | O=C1CCC2(CN(C(=O)c3ccc(-c4cccc5c4CCO5)cc3)C2)N1 [Example 75, 2-(4-(2,3-dihydro-1-benzofuran-4-yl)benzoyl)-2,5-diazaspiro[3.4]octan-6-one] | 90
8 | Cc1cc(Cl)ccc1CC1CCN(C(=O)N2CC3(CCC(=O)N3)C2)CC1 [Example 104, 2-((4-(4-chloro-2-methylbenzyl)piperidin-1-yl)carbonyl)-2,5-diazaspiro[3.4]octan-6-one] | 98
9 | O=C1CCC2(CN(C(=O)c3ccc(-c4ccc5c(c4)OCC5)cc3)C2)N1 [Example 74, 2-(4-(2,3-dihydro-1-benzofuran-6-yl)benzoyl)-2,5-diazaspiro[3.4]octan-6-one] | 95
10 | Cc1cc(C(=O)N2CC3(CCC(=O)N3)C2)ccc1-c1ccccc1 [Example 118, 2-((2-methylbiphenyl-4-yl)carbonyl)-2,5-diazaspiro[3.4]octan-6-one] | 87
11 | O=C1CCC2(CN(C(=O)N3CCC(Cc4ccc(C(F)(F)F)cc4)CC3)C2)N1 [Example 106, 2-((4-(4-(trifluoromethyl)benzyl)piperidin-1-yl)carbonyl)-2,5-diazaspiro[3.4]octan-6-one] | 101
12 | O=C1CCC2(CN(C(=O)c3ccc(-c4ccc(Cl)c(C(F)(F)F)c4)cc3)C2)N1 [Example 52, 2-((4′-chloro-3′-(trifluoromethyl)biphenyl-4-yl)carbonyl)-2,5-diazaspiro[3.4]octan-6-one] | 99
13 | O=C1CCC2(CN(C(=O)c3cc4cc(C(F)(F)F)ccc4s3)C2)N1 [Example 33, 2-((5-(trifluoromethyl)-1-benzothiophen-2-yl)carbonyl)-2,5-diazaspiro[3.4]octan-6-one] | 85
14 | O=C1CCC2(CN(C(=O)c3cc4ccc(C(F)(F)F)cc4s3)C2)N1 [Example 30, 2-((6-(trifluoromethyl)-1-benzothiophen-2-yl)carbonyl)-2,5-diazaspiro[3.4]octan-6-one] | 94
15 | O=C1CCC2(CN(C(=O)N3CCC(Cc4ccc(Cl)cc4Cl)CC3)C2)N1 [Example 102, 2-((4-(2,4-dichlorobenzyl)piperidin-1-yl)carbonyl)-2,5-diazaspiro[3.4]octan-6-one] | 102

The remaining lines, values ahead:

Row | inhibition at 10 µM [%] | SMILES
16 | 100 | COc1ccc2sc(C(=O)N3CC4(CCC(=O)N4)C3)c(Br)c2c1 [Example 152, 2-((3-bromo-5-methoxy-1-benzothiophen-2-yl)carbonyl)-2,5-diazaspiro[3.4]octan-6-one]
17 | 88 | O=C1CCC2(CN(C(=O)c3ccc4scc(-c5ccc(F)cc5)c4c3)C2)N1 [Example 175, 2-((3-(4-fluorophenyl)-1-benzothiophen-5-yl)carbonyl)-2,5-diazaspiro[3.4]octan-6-one]
18 | 101 | O=C1NC2(CO1)CN(C(=O)c1sc3c(C(F)F)c(OC(F)(F)F)ccc3c1Cl)C2 [Example 302, 2-((3-chloro-7-(difluoromethyl)-6-(trifluoromethoxy)-1-benzothiophen-2-yl)carbonyl)-7-oxa-2,5-diazaspiro[3.4]octan-6-one]
19 | 83 | O=C1CCC2(CN(C(=O)c3cc4cc(-c5ccc(Cl)cc5)ccc4s3)C2)N1 [Example 150, 2-((5-(4-chlorophenyl)-1-benzothiophen-2-yl)carbonyl)-2,5-diazaspiro[3.4]octan-6-one]
20 | 100 | O=C1COCC2(CN(C(=O)N3CCC(COc4ccc(F)cc4Cl)CC3)C2)N1 [Example 243, 2-((4-((2-chloro-4-fluorophenoxy)methyl)piperidin-1-yl)carbonyl)-8-oxa-2,5-diazaspiro[3.5]nonan-6-one]
21 | 101 | O=C1NC2(CO1)CN(C(=O)c1sc3c(OC(F)(F)F)ccc(F)c3c1Cl)C2 [Example 267, 2-((3-chloro-4-fluoro-7-(trifluoromethoxy)-1-benzothiophen-2-yl)carbonyl)-7-oxa-2,5-diazaspiro[3.4]octan-6-one]
22 | 102 | O=C1NC2(CO1)CN(C(=O)c1sc3cccc(C(F)(F)F)c3c1Cl)C2 [Example 268, 2-((3-chloro-4-(trifluoromethyl)-1-benzothiophen-2-yl)carbonyl)-7-oxa-2,5-diazaspiro[3.4]octan-6-one]
23 | 83 | O=C1CCC2(CN(C(=O)c3cc4ccc(Cl)cc4s3)C2)N1 [Example 147, 2-((6-chloro-1-benzothiophen-2-yl)carbonyl)-2,5-diazaspiro[3.4]octan-6-one]
24 | 87 | O=C1CCC2(CN(C(=O)c3cc4ccc(OCc5ccc(Cl)cc5Cl)cc4s3)C2)N1 [Example 145, 2-((6-((2,4-dichlorobenzyl)oxy)-1-benzothiophen-2-yl)carbonyl)-2,5-diazaspiro[3.4]octan-6-one]
25 | 99 | Cc1ccccc1-c1ccc2c(Cl)c(C(=O)N3CC4(CCC(=O)N4)C3)sc2c1 [Example 185, 2-((3-chloro-6-(2-methylphenyl)-1-benzothiophen-2-yl)carbonyl)-2,5-diazaspiro[3.4]octan-6-one]
26 | 99 | O=C1CCC2(CN(C(=O)c3sc4ccc(C(F)(F)F)cc4c3Cl)C2)N1 [Example 256, 2-((3-chloro-5-(trifluoromethyl)-1-benzothiophen-2-yl)carbonyl)-2,5-diazaspiro[3.4]octan-6-one]
27 | 97 | O=C1CCC2(CN(C(=O)c3sc4cc(C(F)(F)F)ccc4c3F)C2)N1 [Example 238, 2-((3-fluoro-6-(trifluoromethyl)-1-benzothiophen-2-yl)carbonyl)-2,5-diazaspiro[3.4]octan-6-one]
28 | 101 | O=C1NC2(CO1)CN(C(=O)c1sc3c(F)ccc(OC(F)F)c3c1Cl)C2 [Example 313, 2-((3-chloro-4-(difluoromethoxy)-7-fluoro-1-benzothiophen-2-yl)carbonyl)-7-oxa-2,5-diazaspiro[3.4]octan-6-one]
29 | 100 | O=C1CCC2(CN(C(=O)c3sc4cc(C5=CCC(F)(F)CC5)ccc4c3Cl)C2)N1 [Example 179, 2-((3-chloro-6-(4,4-difluorocyclohex-1-en-1-yl)-1-benzothiophen-2-yl)carbonyl)-2,5-diazaspiro[3.4]octan-6-one]
30 | 100 | O=C1NC2(CO1)CN(C(=O)c1sc3cc(OC(F)(F)F)ccc3c1C(F)(F)F)C2 [Example 261, 2-((6-(trifluoromethoxy)-3-(trifluoromethyl)-1-benzothiophen-2-yl)carbonyl)-7-oxa-2,5-diazaspiro[3.4]octan-6-one]
31 | 100 | Cc1c(OC(F)F)cc(F)c2c(Cl)c(C(=O)N3CC4(COC(=O)N4)C3)sc12 [Example 304, 2-((3-chloro-6-(difluoromethoxy)-4-fluoro-7-methyl-1-benzothiophen-2-yl)carbonyl)-7-oxa-2,5-diazaspiro[3.4]octan-6-one]
32 | 100 | Cc1c(C(=O)N2CC3(COC(=O)N3)C2)sc2cc(-c3c(F)cccc3F)ccc12 [Example 351, 2-((6-(2,6-difluorophenyl)-3-methyl-1-benzothiophen-2-yl)carbonyl)-7-oxa-2,5-diazaspiro[3.4]octan-6-one]
33 | 90 | O=C1CCC2(CN(C(=O)c3ccc(-c4ccccc4)c(Cl)c3)C2)N1 [Example 119, 2-((2-chlorobiphenyl-4-yl)carbonyl)-2,5-diazaspiro[3.4]octan-6-one]
34 | 100 | O=C1NC2(CO1)CN(C(=O)c1sc3c(C(F)(F)F)cccc3c1Cl)C2 [Example 257, 2-((3-chloro-7-(trifluoromethyl)-1-benzothiophen-2-yl)carbonyl)-7-oxa-2,5-diazaspiro[3.4]octan-6-one]
35 | 92 | Cc1c(C(=O)N2CC3(CCC(=O)N3)C2)sc2ccccc12 [Example 141, 2-((3-methyl-1-benzothiophen-2-yl)carbonyl)-2,5-diazaspiro[3.4]octan-6-one]
